{"source": "ChEMBL document CHEMBL1153133", "about": "“2,4-Diaminopyrimidine MK2 inhibitors. Part I: Observation of an unexpected inhibitor binding mode” (Bioorg Med Chem Lett, 2010)", "key": {"[1]": {"target": "T1, MAP kinase-activated protein kinase 2 (Homo sapiens, UniProt P49137)", "T1 sequence (P49137 whole entry)": "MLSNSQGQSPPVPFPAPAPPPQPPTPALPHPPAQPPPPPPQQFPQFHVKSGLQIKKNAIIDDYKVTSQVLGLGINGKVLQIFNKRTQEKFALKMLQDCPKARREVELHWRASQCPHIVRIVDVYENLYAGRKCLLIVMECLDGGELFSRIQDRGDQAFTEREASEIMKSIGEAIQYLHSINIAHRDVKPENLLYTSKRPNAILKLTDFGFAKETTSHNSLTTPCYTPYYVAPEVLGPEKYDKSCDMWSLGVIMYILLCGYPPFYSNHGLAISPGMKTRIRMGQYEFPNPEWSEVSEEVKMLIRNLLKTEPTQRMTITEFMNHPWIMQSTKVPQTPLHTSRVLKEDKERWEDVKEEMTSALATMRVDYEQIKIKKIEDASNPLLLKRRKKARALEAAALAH", "assay": "Displacement of [8-3H]ATP from human recombinant MK2 (36-400) by scintillation proximity assay"}, "[2]": {"target": "T1, MAP kinase-activated protein kinase 2", "assay": "Inhibition of human recombinant phospho-MK2 (36-400) by HTRF assay"}, "[3]": {"target": "T1, MAP kinase-activated protein kinase 2", "assay": "Displacement of [8-3H]ATP from human recombinant MK2 (41-364) by scintillation proximity assay"}}}
{"smiles": "Nc1ncnc2c1ncn2[C@@H]1O[C@H](COP(=O)(O)OP(=O)(O)OP(=O)(O)O)[C@@H](O)[C@H]1O", "note": "(single isomer, unassigned) [ADENOSINE TRIPHOSPHATE]", "values": [{"measurement": "IC50", "setting": "[1]", "value": 6.3, "unit": "µM"}, {"measurement": "IC50", "setting": "[2]", "value": 2800, "unit": "nM"}, {"measurement": "IC50", "setting": "[3]", "value": 12, "unit": "µM"}]}
